# Data reported in patent US12590963B2, “Anti-cancer treatment of preselected subjects and screening methods to identify susceptible subjects” (TUDAG TU Dresden Aktiengesellschaft, priority 2018, dated 2026).
# System: U-87 cells
# Test: Drug screening of FDA-approved compound library, cell viability by ATP levels (ATPLite)
# Assay type: cell-based, human
# Conditions: FGFJI medium
# Procedure: A library of 1,600 FDA-approved compounds was screened on U-87 cells cultured in the improved conditions. Each drug was screened at both 3 micromolar and 10 micromolar concentrations. Cell viability was assessed by measuring ATP levels.
# Drugs that opposed cell viability were further investigated. These drugs were re-screened under the more common cell culture conditions (in serum-supplemented RMPI medium, where cells are more differentiated). Some drugs were identified that also opposed growth under the more differentiated conditions. We also identified some drugs that only opposed growth in the improved conditions. It was focused on the latter drugs only as being the target compounds of the present invention.
# White Corning 384 well plates (Cat #3570) were coated with 40 ul of […] polyornithine (Sigma, #P-365) at 370C overnight. The next day the plates were washed 5 times with water using a BioTek EL 406 plate washer. The plates were then coated with 40 ul of 1 mg/ml fibronectin (R&D Systems, #1030-Fn) for 2 hours at 370C and then washed 2 times with PBS. Either 15nl or 50nl of either 10 mM library compounds (MicroSource Pharmakon library) or 100% DMSO as negative control or 1 mM Staurosporine (ACROS #328532500) were dispensed with a Labcyte Echo 550 to screen the library at 3u M and 10 μM respectively. U87 cells were seeded in the plates with a WellMate drop dispenser (ThermoFischer) at a density of 3000 cells per well in 50 μl N2 medium and incubated for 20 hours at 37 °C in 5% C02. Cell viability was assayed using Perkin Elmer ATPLite (Cat 6016731) according to vendor's instructions. For the dose dependent verification assay, cells were seeded in N2 medium with or without serum to test the specificity of compound action.
# A library of 1,600 FDA-approved compounds was screened at two different concentrations (10 μM and 3 μM) on U-87 cells cultured in FGFJI (FIG. 8).
# [1] = 10 μM, second value of the cell
Compound,"ATP assay score (3 μM, 10 μM) (3 μM, first value of the cell)","ATP assay score (3 μM, 10 μM) [1]"
"Oc1c(Cl)cc(Cl)cc1Sc1cc(Cl)cc(Cl)c1O.[Na+] [BITHIONATE Na, sodium 2,4-dichloro-6-(3,5-dichloro-2-hydroxyphenyl)sulfanylphenol]",−11,−10
"Oc1c(Br)cc(Br)c2cccnc12 [BROXYQUINOLINE, 5,7-dibromoquinolin-8-ol]",−11,−8
"Oc1c(I)cc(Cl)c2cccnc12 [CLIOQUINOL, 5-chloro-7-iodoquinolin-8-ol]",−11,−7
"CC(C)(C)CC(C)(C)c1ccc(O)c(Cc2ccc(Cl)cc2Cl)c1 [CLOFOCTOL, 2-[(2,4-dichlorophenyl)methyl]-4-(2,4,4-trimethylpentan-2-yl)phenol]",−11,−5
"CC[C@@H](C(=O)[C@@H](C)[C@@H](O)[C@H](C)CCc1ccc(C)c(O)c1C(=O)[O-])[C@H]1O[C@](CC)([C@H]2CC[C@](O)(CC)[C@H](C)O2)C[C@@H]1C.[Na+] [LASALOCID Na, sodium 6-[(3R,4S,5S,7R)-7-[(2S,3S,5S)-5-ethyl-5-[(2R,5R,6S)-5-ethyl-5-hydroxy-6-methyloxan-2-yl]-3-methyloxolan-2-yl]-4-hydroxy-3,5-dimethyl-6-oxononyl]-2-hydroxy-3-methylbenzoate]",−10,−5
"Oc1cc(Cl)ccc1Oc1ccc(Cl)cc1Cl [TRICLOSAN, 5-chloro-2-(2,4-dichlorophenoxy)phenol]",−7,−5
